Structures can show the parent of a compound that is named as a salt.

The target of this test is T1, Carbonic anhydrase [110-330] (Coastal plain yellowtops, UniProt P46510).
T1 construct: 110-330
T1 sequence (P46510 whole entry): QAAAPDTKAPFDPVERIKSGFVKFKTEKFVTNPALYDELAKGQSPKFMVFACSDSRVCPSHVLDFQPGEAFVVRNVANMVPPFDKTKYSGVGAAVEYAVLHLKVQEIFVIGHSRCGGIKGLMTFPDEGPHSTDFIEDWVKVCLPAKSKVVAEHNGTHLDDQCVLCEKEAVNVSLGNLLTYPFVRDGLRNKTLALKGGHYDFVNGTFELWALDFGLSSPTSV
The experiment in a line: Stopped Flow CO2 Hydration Assay. The note with it: pH 8.3; 20 °C. How it is done:
Inhibition constants of carboxylate inhibitors against F. bidentis CA I were determined by a stopped flow CO2 hydration assay at 20 °C.
Usually Ki stands for the dissociation constant of the complex between target and ligand, obtained from inhibition or displacement. Read a high Ki as weaker binding. As for `O=C(O)c1ccccc1` [SODIUM BENZOATE], the affinity corresponds to a Ki of 64.5 µM. Then `CCC(=O)O`, with 91 µM; and `O=C(O)C(=O)O`, with 93 µM. Turning to `CC(O)C(=O)O` (centres undefined), the affinity, expressed as Ki, was 74.1 µM.

In turn, `O=C(O)c1c(F)c(F)cc(F)c1F` [2,3,5,6-F4-Benzoate] showed a Ki of 51.2 µM. Then `CC(=O)O` [sodium acetate], with 95.1 µM; and `O=CO`, with 97.5 µM; and `CCCC(=O)O`, with 82.3 µM. The figure for `O=C(O)CC(=O)O` [sodium malonate] is 100 µM; for `O=C(O)CC(O)C(=O)O` (centres undefined) it is 92.5 µM; for `O=C(O)CC(O)(CC(=O)O)C(=O)O` [SODIUM CITRATE] it is 41.4 µM. Then `O=C(O)/C=C\C(=O)O` [sodium maleate], with 73.2 µM; and `CC(=O)C(=O)O` [Pyruvate], with > 10000 µM. For the compound `CCCCC(=O)O`, the affinity corresponds to a Ki of 77.5 µM.

(Values after BindingDB's records for doi:10.3109/14756366.2013.813942 (Istituto di Biostrutture e Bioimmagini-CNR, 2014).)
